Data as given in patent US5580904A, “Formamido and carboxyamido compounds which can be retained in brain” (Drug Delivery System Institute, Ltd., priority 1992, dated 1996).
Structures can show the parent of a compound that is named as a salt. Where two headings read alike, the source gives them in different places.

Assay type: in vivo
Details: 5 mg/kg on the basis of DOPA, into the femoral vein, SD rats
Description: The distribution and residence in brain of the compounds according to the present invention were evaluated as follows.
Blood samples were taken out from abdominal aorta after a certain period of […]. Immediately after the exsanguination, whole brain was removed. Experiments were carried out with 3 rats at each blood sampling point.
The DOPA concentration in the whole brain was determined in accordance with the method "New Biochemical Experiment Course, Vol. 11, Neurobiochemistry,p. 289-290 (edited by Biochemical Society, Japan, published by Tokyo Kagaku-Dojin, 1990)." As the controls, the Boc-eliminated Compound D and DOPA were administered in the same manner as above to determine the DOPA concentration.

Area under the curve of concentration (AUC) of DOPA in brain (Time 0-2 hr) [ng·min/g]	Area under the curve of concentration (AUC) of DOPA in brain (Time 0-4 hr) [ng·min/g]	Structure (SMILES)
6035	6035	N[C@@H](Cc1ccc(O)c(O)c1)C(=O)O [DOPA, 3,4-dihydroxy phenylalanine, reference compound]
34595		C/C(=C(\CCOC(=O)C(N)Cc1ccc(OC(=O)C(C)(C)C)c(OC(=O)C(C)(C)C)c1)SSC(C)C)N(C=O)Cc1cnc(C)nc1N (stereo not drawn) [Example 30 (b), N-[(4-amino-2-methyl-5-pyrimidyl)methyl]-N-[4-[2-amino-3-(3,4-dipivaloyloxyphenyl)propionyl]oxy-1-methyl-2-[(2-propyl)dithio]-1-butenyl]formamide hydrochloride]
3169	3277	CC(C)(C)C(=O)Oc1ccc(C[C@H](N)C(=O)O)cc1OC(=O)C(C)(C)C [Boc-elimination of Compound D, reference compound]

The next lines start with the molecule.

Structure (SMILES)	Area under the curve of concentration (AUC) of DOPA in brain (Time 0-2 hr) [ng·min/g]	Area under the curve of concentration (AUC) of DOPA in brain (Time 0-4 hr) [ng·min/g]
CC(=C(CCOC(=O)[C@@H](N)Cc1ccc(OC(=O)C(C)(C)C)c(OC(=O)C(C)(C)C)c1)SSC(C)C)N(C)C=O [3 (b)]		82476
C=CCSS/C(CCOC(=O)C(N)Cc1ccc(OC(=O)C(C)(C)C)c(OC(=O)C(C)(C)C)c1)=C(/C)N(C=O)Cc1cnc(C)nc1N (stereo not drawn) [35 (b), N-[(4-amino-2-methyl-5-pyrimidyl)methyl]-N-[4-[2-amino-3-(3,4-dipivaloyloxyphenyl)propionyl]oxy-1-methyl-2-[(2-propenyl)dithio]-1-butenyl]formamide]		10626
C/C(=C(\CCOC(=O)C(N)Cc1ccc(OC(=O)C(C)(C)C)c(OC(=O)C(C)(C)C)c1)SSCC1CCCO1)N(C=O)Cc1cnc(C)nc1N (stereo not drawn) [29 (b), N-[(4-amino-2-methyl-5-pyrimidyl)methyl]-N-[4-[2-amino-3-(3,4-dipivaloyloxyphenyl)propionyl]oxy-1-methyl-2-[(tetrahydrofurfuryl)dithio]-1-butenyl]formamide]	6659	7151
